Measured values as given in patent US20020028255A1, “Pesticide treatment” (priority 1998, published 2002).

How the values were obtained:
[1] = test system: Maize (Pioneer 3394) seeds; assay: Damage (bleaching of the shoot) to maize seeds bathed in herbicide solutions, control vs hypochlorite-sterilized seed; assay type: in vivo; details: for damage to maize: low concentration
Protocol: Maize (Pioneer 3394) seeds were placed in a solution of 1% (w/w) sodium hypochlorite for 30 seconds, then rinsed thoroughly for 5 minutes with sodium bicarbonate solution (5% w/w).
Replicates of 20 seeds from each treatment were placed in petri dishes and bathed in 25 ml of the following solutions for 24 hours (covered and incubated at 25° C. in a growth cabinet).
After 24 hours the seeds were removed from the bathing solutions, rinsed thoroughly in water and planted (in green light- as some of the seeds had started to produce a coleoptile which is sensitive to daylight). Seeds were planted in duplicate in 10 cm×10 cm pots containing non-sterile loam and were overhead watered 3 times daily.
Assessments were made 7 and 14 DAT (days after treatment).

[2] = Vials of dione solution in water (500 ppt) treated with water containing chlorine (ppb); assay type: physicochemical; details: dione 500 ppt, ambient temperature
Protocol: (B) Vials containing 1 ml of solutions in water of the dione used in (A) (at a concentration of 500 ppt) were treated at ambient temperature with 1 ml of water containing 0.1 or 0.5 ppb concentrations of chlorine.

[3] = Kinetics of decomposition of the dione in water in the presence of chlorine (ppm); assay type: physicochemical
Description: (A) The kinetics of the decomposition of 2-cyano-3-cyclopropyl-1-(2-methylsulphonyl-4-trifluoromethylphenyl)propan-1,3-dione in water was studied. The following Table summarizes the results obtained at pH7 or pH9 in the presence of 0.1 or 0.5 ppm of chlorine. The percentages given are of degradation of the dione to the corresponding benzoic acid, 2-methylsulphonyl-4-trifluoromethyl-benzoic acid.

[4] = Decomposition of DKN in bleach, followed by TLC; assay type: physicochemical; details: 1 g in 25 ml bleach (14 to 15% chlorine), ambient temperature, after 30 minutes
Protocol: 2-Cyano-3-cyclopropyl-1-2-methylsulphonyl-4-trifluoromethylphenyl)propan-1,3-dione(DKN:1 g) was added to 25 ml of bleach (containing 14 to 15% chlorine). The mixture was stirred at ambient temperature. After 3 minutes a clear solution formed. […] The main product was the corresponding benzoic acid.

[5] = Cleaning of a contaminated 1000 l tank with sodium hypochlorite solution; assay type: physicochemical; details: tank wet with 0.02% (w/w) suspension; 10 l of 0.01% (w/w) sodium hypochlorite, one hour
Description: A 1000 l container or tank was used to prepare a suspension of dione pesticide (2-cyano-3-cyclopropyl- 1-(2-methylsulphonyl-4-trifluoromethylphenyl)propan-1,3-dione). The suspension was used to destroy the weeds in a crop growing area. The container was then still wet with aqueous suspension of 0.02% (w/w) of the pesticide.
10 l of 0.01% (w/w) solution of sodium hypochlorite is poured into the tank and stirred (so as to contact the whole inner surface of the container) and left for one hour.
Example 3 is repeated except that the pesticide is an isoxazole (5-cyclopropyl-4-(2-methylsulphonyl-4-trifluoromethylbenzoyl)isoxazole;IFT) and the pH of the hypochlorite solution is 8.5 (adjusted using NaOH).

[6] = control seed, 1.0 μg ml^−1, bathed 24 hours
[7] = control seed, 10.0 μg ml^−1, bathed 24 hours
[8] = sterilized seed (1% sodium hypochlorite), 1.0 μg ml^−1, bathed 24 hours
[9] = sterilized seed (1% sodium hypochlorite), 10.0 μg ml^−1, bathed 24 hours

Structure (SMILES): CS(=O)(=O)c1cc(C(F)(F)F)ccc1C(=O)c1cnoc1C1CC1 [IFT, 5-cyclopropyl-4-(2-methylsulphonyl-4-trifluoromethylbenzoyl)isoxazole]
- % Damage (bleaching of the shoot) ([1]; control seed, 0.1 μg ml^−1, bathed 24 hours): 0%
- % Damage (bleaching of the shoot) [1, 6]: 20%
- % Damage (bleaching of the shoot) [1, 7]: 98%
- damage to maize ([1]; 0.1 μg ml^−1): No damage
- % Damage (bleaching of the shoot) ([1]; sterilized seed (1% sodium hypochlorite), 0.1 μg ml^−1, bathed 24 hours): 0%
- % Damage (bleaching of the shoot) [1, 8]: 13%
- % Damage (bleaching of the shoot) [1, 9]: 100%

Structure (SMILES): CS(=O)(=O)c1cc(C(F)(F)F)ccc1C(=O)C(C#N)C(=O)C1CC1 (stereo not drawn) [DKN]
- degradation of the dione ([2]; pH 5, Cl2 0.1 ppb, 15 min): 100%
- degradation of the dione ([2]; pH 5, Cl2 0.5 ppb, 15 min): 100%
- degradation of the dione ([2]; pH 7, Cl2 0.1 ppb, 15 min): 100%
- degradation of the dione ([2]; pH 7, Cl2 0.5 ppb, 15 min): 100%
- degradation of the dione ([2]; pH 9, Cl2 0.1 ppb, 60 min): >90%
- degradation of the dione ([2]; pH 9, Cl2 0.5 ppb, 15 min): 100%
- % Damage (bleaching of the shoot) [1, 6]: 0%
- % Damage (bleaching of the shoot) [1, 7]: 0%
- % Damage (bleaching of the shoot) ([1]; control seed, 100.0 μg ml^−1, bathed 24 hours): 87%
- damage to maize ([1]; 1 μg ml^−1): No damage
- % Damage (bleaching of the shoot) [1, 8]: 0%
- % Damage (bleaching of the shoot) [1, 9]: 0%
- % Damage (bleaching of the shoot) ([1]; sterilized seed (1% sodium hypochlorite), 100.0 μg ml^−1, bathed 24 hours): 11%
- degradation of the dione to the corresponding benzoic acid ([3]; pH 7, Cl2 0.1 ppm, 15 min): 100%
- degradation of the dione to the corresponding benzoic acid ([3]; pH 7, Cl2 0.5 ppm, 15 min): 100%
- degradation of the dione to the corresponding benzoic acid ([3]; pH 9, Cl2 0.1 ppm, 15 min): 50%
- degradation of the dione to the corresponding benzoic acid ([3]; pH 9, Cl2 0.1 ppm, 60 min): 100%
- degradation of the dione to the corresponding benzoic acid ([3]; pH 9, Cl2 0.5 ppm, 15 min): 100%
- DKN remaining by thin layer chromatography [4]: no DKN was detected
- disappearance of pesticide from the tank [5]: All of the dione pesticide disappeared
